Starred links: 1 amine or outer side, 2 acyl side, 3 side chain; linkers in the order of their positions; H or OH if unused. Positions of bridges follow the written chain, without caps; N, C: chain ends. Non-standard residues stand in square brackets, D forms with d. Residues, ends and D or L forms follow the SMILES beside them. X49 = O=C([C@H](CNC[C@@H](O)[C@H](O)[C@@H](O)[C@@H](O)[C@H](O)CO)N[*:1])[*:2]; X40 = O=C([C@H](CNC1[C@@H](O)[C@@H](O)[C@@H](O)[C@H](O)[C@H]1O)N[*:1])[*:2]; X51 = O=C([C@H](CCNC[C@@H](O)[C@@H](O)[C@H](O)[C@H](O)C(O)CO)N[*:1])[*:2]; X50 = O=C([C@H](CNC[C@@H](O)[C@@H](O)[C@H](O)[C@H](O)C(O)CO)N[*:1])[*:2]; X11 = O=C([C@H](CNC[C@H](O)[C@@H](O)[C@@H](O)[C@H](O)CO)N[*:1])[*:2]; X32 = O=C([C@H](CCNC[C@@H](O)[C@H](O)[C@@H](O)CO)N[*:1])[*:2]; X31 = O=C([C@H](CNC[C@@H](O)[C@H](O)[C@@H](O)CO)N[*:1])[*:2]; Trp(1-CH2COOH) = N[C@@H](Cc1cn(CC(=O)O)c2ccccc12)C(=O)O; Hyp = O=C(O)[C@@H]1C[C@@H](O)CN1; NMeNle = CCCC[C@H](NC)C(=O)O; NMeA = CN[C@@H](C)C(=O)O; Dab = NCC[C@H](N)C(=O)O
Target: T1, PD-1/PD-L1 (Homo sapiens, UniProt Q9NZQ7)
T1 construct: TVMV protease site (linker) (C); made in house; host or cells: HEK293T cells
T1 sequence (Q9NZQ7 18-239): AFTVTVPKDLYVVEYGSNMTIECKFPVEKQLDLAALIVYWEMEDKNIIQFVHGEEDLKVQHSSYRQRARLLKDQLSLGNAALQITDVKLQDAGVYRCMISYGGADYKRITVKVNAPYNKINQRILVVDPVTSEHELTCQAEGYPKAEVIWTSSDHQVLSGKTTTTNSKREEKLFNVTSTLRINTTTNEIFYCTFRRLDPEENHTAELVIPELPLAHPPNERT
Assay: PD-1/PD-L1 Homogenous Time-Resolved Fluorescence (HTRF) binding assay
Conditions: PD-L1-His 10 nM, PD-1-Ig 20 nM
Procedure, shortened: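 Compounds preincubated 15 min with PD-L1-His (residues 18-239, 10 nM) in dPBS with 0.1% BSA, 0.05% Tween-20, then PD-1-Ig (residues 25-167, 20 nM) for 15 min. Eu-cryptate anti-Ig (1 nM) and APC anti-His (20 nM) equilibrated 30 min; 665/620 nm ratio read, IC50 derived.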

`CCCC[C@H]1C(=O)N(C)[C@@H](CCCC)C(=O)N[C@@H](CC(C)C)C(=O)N[C@H](C(=O)NCC(N)=O)CSCC(=O)N[C@@H](Cc2ccc(O)cc2)C(=O)N(C)[C@@H](C)C(=O)N[C@@H](CC(N)=O)C(=O)N2CCC[C@H]2C(=O)N[C@@H](CNC[C@H](O)[C@@H](O)[C@@H](O)[C@H](O)CO)C(=O)N[C@@H](CC(C)C)C(=O)N2C[C@H](O)C[C@H]2C(=O)N[C@@H](Cc2c[nH]c3ccccc23)C(=O)N[C@@H](CCN)C(=O)N[C@@H](Cc2cn(CC(=O)O)c3ccccc23)C(=O)N1C` [Example 2017] ({CH2CO}-Y[NMeA]NP[X11]L[Hyp]W[Dab][Trp(1-CH2COOH)][NMeNle][NMeNle]LCG-NH2; thioether N-14) was tested, and the IC50 was 7.2 nM.

In the case of `CCCC[C@H]1C(=O)N(C)[C@@H](CCCC)C(=O)N[C@@H](CC(C)C)C(=O)N[C@H](C(=O)NCC(N)=O)CSCC(=O)N[C@@H](Cc2ccc(O)cc2)C(=O)N(C)[C@@H](C)C(=O)N[C@@H](CC(N)=O)C(=O)N2CCC[C@H]2C(=O)N[C@@H](CNC[C@@H](O)[C@H](O)[C@@H](O)CO)C(=O)N[C@@H](CC(C)C)C(=O)N2C[C@H](O)C[C@H]2C(=O)N[C@@H](Cc2c[nH]c3ccccc23)C(=O)N[C@@H](CCNC[C@@H](O)[C@H](O)[C@@H](O)CO)C(=O)N[C@@H](Cc2cn(CC(=O)O)c3ccccc23)C(=O)N1C` [Example 2018] ({CH2CO}-Y[NMeA]NP[X31]L[Hyp]W[X32][Trp(1-CH2COOH)][NMeNle][NMeNle]LCG-NH2; thioether N-14), the IC50 is reported as 2.4 nM.

With `CCCC[C@H]1C(=O)N(C)[C@@H](CCCC)C(=O)N[C@@H](CC(C)C)C(=O)N[C@H](C(=O)NCC(N)=O)CSCC(=O)N[C@@H](Cc2ccc(O)cc2)C(=O)N(C)[C@@H](C)C(=O)N[C@@H](CC(N)=O)C(=O)N2CCC[C@H]2C(=O)N[C@@H](CNC[C@@H](O)[C@H](O)[C@@H](O)[C@@H](O)[C@H](O)CO)C(=O)N[C@@H](CC(C)C)C(=O)N2C[C@H](O)C[C@H]2C(=O)N[C@@H](Cc2c[nH]c3ccccc23)C(=O)N[C@@H](CCN)C(=O)N[C@@H](Cc2cn(CC(=O)O)c3ccccc23)C(=O)N1C` [Example 2019] ({CH2CO}-Y[NMeA]NP[X49]L[Hyp]W[Dab][Trp(1-CH2COOH)][NMeNle][NMeNle]LCG-NH2; thioether N-14) the IC50 was 8.1 nM.

`CCCC[C@H]1C(=O)N(C)[C@@H](CCCC)C(=O)N[C@@H](CC(C)C)C(=O)N[C@H](C(=O)NCC(N)=O)CSCC(=O)N[C@@H](Cc2ccc(O)cc2)C(=O)N(C)[C@@H](C)C(=O)N[C@@H](CC(N)=O)C(=O)N2CCC[C@H]2C(=O)N[C@@H](CNC2[C@@H](O)[C@@H](O)[C@@H](O)[C@H](O)[C@H]2O)C(=O)N[C@@H](CC(C)C)C(=O)N2C[C@H](O)C[C@H]2C(=O)N[C@@H](Cc2c[nH]c3ccccc23)C(=O)N[C@@H](CCN)C(=O)N[C@@H](Cc2cn(CC(=O)O)c3ccccc23)C(=O)N1C` (some centres unmarked) [Example 2020] ({CH2CO}-Y[NMeA]NP[X40]L[Hyp]W[Dab][Trp(1-CH2COOH)][NMeNle][NMeNle]LCG-NH2; thioether N-14) gave an IC50 of 5 nM.

`CCCC[C@H]1C(=O)N(C)[C@@H](CCCC)C(=O)N[C@@H](CC(C)C)C(=O)N[C@H](C(=O)NCC(N)=O)CSCC(=O)N[C@@H](Cc2ccc(O)cc2)C(=O)N(C)[C@@H](C)C(=O)N[C@@H](CC(N)=O)C(=O)N2CCC[C@H]2C(=O)N[C@@H](CNC[C@@H](O)[C@@H](O)[C@H](O)[C@H](O)C(O)CO)C(=O)N[C@@H](CC(C)C)C(=O)N2C[C@H](O)C[C@H]2C(=O)N[C@@H](Cc2c[nH]c3ccccc23)C(=O)N[C@@H](CCNC[C@@H](O)[C@@H](O)[C@H](O)[C@H](O)C(O)CO)C(=O)N[C@@H](Cc2cn(CC(=O)O)c3ccccc23)C(=O)N1C` (some centres unmarked) [Example 2021] ({CH2CO}-Y[NMeA]NP[X50]L[Hyp]W[X51][Trp(1-CH2COOH)][NMeNle][NMeNle]LCG-NH2; thioether N-14) showed an IC50 of 8.9 nM.
